Experimental data: article PMC8231556, “Inhibiting Endothelial Cell Function in Normal and Tumor Angiogenesis Using BMP Type I Receptor Macrocyclic Kinase Inhibitors” (Cancers, 2021)

Experiments:
[1] = target: ACVR2A (Homo sapiens, UniProt P27037); assay: radiometric protein kinase assay, affinity (Kd); type: binding
Description: The binding interaction profile of the compounds for ALK1–6, ACVR2A, ACVR2B, and TGFβR2 was determined by using radiometric protein kinase assay. For each compound, ten different concentrations (from 3 × 10^−6 M to 9 × 10^−11 M) were used in the protein kinase reaction. The inhibitor binding constants (Kd values) were calculated based on the 10 corresponding residual activities for each compound using Prism 5.04 (Graphpad, San Diego, CA, USA) according to the following formula:Kd = ([K][I]/[C]) where [K] = molar concentration of non-inhibitor bound kinase at equilibrium, [I] = molar concentration of the free inhibitor at equilibrium, [C] = molar concentration of kinase-inhibitor complex at equilibrium.

[2] = tested on: Tg (fli:EGFP) zebrafish embryos; assay: Zebrafish subintestinal vessel (SIV) formation; type: in vivo; conditions: 0.5 µM, 3 days
Description: The Tg (fli:EGFP) zebrafish embryos were collected, and embryos with the same development stage (around 2.5 hpf) were selected. Groups containing at least 25 embryos were treated with the indicated compounds at 0.5 µM for 3 days. The egg water was refreshed every day, and the abnormal embryos were removed. After 3 days of treatment, the zebrafish embryos were fixed in 4% PFA for 2 h at room temperature and stored at 4 °C in PBS. The area containing SIV in each zebrafish embryo was scanned with an Andor Dragonfly 500 spinning disk confocal by using a 488 nm laser. At least ten zebrafish embryos in each group were randomly selected and analyzed. The SIV vasculature of the zebrafish was quantified with ImageJ. The leading buds were counted as previously described. The experiments were repeated twice with similar results.

[3] = target: TGFBR2 (Homo sapiens, UniProt P37173); assay: radiometric protein kinase assay, affinity (Kd); type: binding
Sequence of TGFBR2 (P37173 23-567): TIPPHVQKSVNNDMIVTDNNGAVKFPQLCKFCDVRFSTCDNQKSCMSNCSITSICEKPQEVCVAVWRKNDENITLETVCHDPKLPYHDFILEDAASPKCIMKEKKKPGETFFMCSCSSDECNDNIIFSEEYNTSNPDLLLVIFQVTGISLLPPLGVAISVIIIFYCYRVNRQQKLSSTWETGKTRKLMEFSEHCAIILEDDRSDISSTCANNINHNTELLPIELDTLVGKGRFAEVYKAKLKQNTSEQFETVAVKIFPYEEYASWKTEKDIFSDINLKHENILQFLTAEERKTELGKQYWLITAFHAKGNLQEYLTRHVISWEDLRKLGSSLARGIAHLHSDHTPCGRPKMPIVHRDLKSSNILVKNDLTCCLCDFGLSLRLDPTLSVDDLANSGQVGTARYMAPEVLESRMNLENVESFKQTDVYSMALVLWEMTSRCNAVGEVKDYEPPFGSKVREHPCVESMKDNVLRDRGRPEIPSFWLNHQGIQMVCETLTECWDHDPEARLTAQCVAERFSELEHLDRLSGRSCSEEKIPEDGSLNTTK
Description: The binding interaction profile of the compounds for ALK1–6, ACVR2A, ACVR2B, and TGFβR2 was determined by using radiometric protein kinase assay. For each compound, ten different concentrations (from 3 × 10^−6 M to 9 × 10^−11 M) were used in the protein kinase reaction.

[4] = tested on: Tg (fli:EGFP) zebrafish embryos; assay: Zebrafish DLAV and ISV formation; type: in vivo; conditions: 0.5 µM, 20 h
Description: The Tg (fli:EGFP) zebrafish embryos were collected, and embryos with the same development stage (around 2.5 hpf) were selected. The eggs were randomly separated into different groups, and each group contained at least 20 embryos. The embryos were exposed to egg water containing 0.5 µM compounds or vehicle control (equal amount of DMSO) for 20 h at 28 °C. Next, all the eggs were dechorionated under the microscope using tweezers. The zebrafish embryos were fixed in 4% paraformaldehyde (PFA) for 2 h at room temperature and stored at 4 °C in phosphate-buffered saline (PBS). The entire zebrafish embryo was imaged with an Andor Dragonfly 500 spinning disk confocal (Oxford Instruments, Abingdon, UK) using a 488 nm laser. Five embryos in each group were randomly selected and scanned. The zebrafish vasculature formation of DLAV and ISV after 20 h treatment with compounds was quantified using ImageJ as previously described. The experiments were repeated twice with similar results.

[5] = tested on: TGF-β2-induced SMAD2 phosphorylation; assay: Western blot of TGF-β2-induced SMAD2 phosphorylation in EA.hy926 cells; type: cell-based, human; conditions: TGF-β2 1 ng/mL
Description: EA.hy926 cells or HUVECs were seeded in 6-well plates and starved in a serum-free medium for 4 h after reaching 80% confluence. The compounds were added 30 min prior to stimulation with the corresponding ligands. EA.hy926 cells were incubated with BMP9 (1 ng/mL), BMP6 (50 ng/mL), TGF-β2 (1 ng/mL), or vehicle control for 1 h. For HUVECs, after 4 h starvation, the cells were pre-treated with or without the indicated compounds for 30 min and subsequently stimulated with VEGF (40 ng/mL) for 10 min. The cells were harvested and lysed in radioimmunoprecipitation assay (RIPA) lysis buffer containing 1× complete protease inhibitor cocktail (11836153001, Roche, Basel, Switzerland). The protein concentration was determined using the DC protein assay kit (5000111, Bio-Rad). After adding loading buffer, the samples were boiled and proteins separated by sodium dodecyl sulfate polyacrylamide gel electrophoresis (SDS-PAGE). Proteins in the gel were transferred to polyvinylidene difluoride (PVDF) membranes (IPVH00010, Merck Millipore, Burlington, MA, USA) and immunoblotted with 1000 times diluted primary antibodies: phospho-SMAD1/5 (9516 S, Cell Signaling Technology, Leiden, The Netherlands), phospho-SMAD2 (pSMAD2, home-made), SMAD1 (6944 S, Cell Signaling Technology), SMAD2 (3103 S, Cell Signaling Technology), phospho-extracellular signal-regulated kinase/mitogen-activated protein kinase (pERK/MAPK, 4370, Cell Signaling Technology), mitogen-activated protein kinase/ERK1/2 (ERK1/2/MAPK, 9102 S, Cell Signaling Techonol), VEGFR (2479, Cell Signaling), pVEGFR (2478, Cell Signaling Technology), α/β-Tubulin (2148, Cell Signaling Technology), glyceraldehyde 3-phosphate dehydrogenase (GAPDH, MAB374, Merck Millipore). Clarity™ enhanced chemiluminescence (ECL) reagent (1705060, Bio-Rad) was used to visualize secondary antibodies conjugated to horseradish peroxidase (HRP). GAPDH or Tubulin was used as protein loading controls. […] The protein bands were quantified using ImageJ (National Institutes of Health, Bethesda, MD, USA).

[6] = tested on: HUVECs; assay: Cord formation assay, HUVEC-eGFP co-cultured with human dermal fibroblasts; type: cell-based; conditions: for effect on VEGF-induced EC cord formation: VEGF 15 ng/mL, 6 days, 0.5 µM (Sunitinib 1 μM); for effect on VEGF-induced cord length, different concentrations: dose range
Description: The cord formation assay was performed according to the IncuCyte Angiogenesis PrimeKit Assay protocol (Cell Player Angiogenesis PrimeKit, Essen BioScience). In brief, GFP labeled HUVEC cells and human dermal fibroblasts were mixed in a 1:20 ratio and seeded per well in a 96-well plate (3150 cells in total). Thereafter, the cells were exposed to VEGF alone or in combination with the compounds (at indicated concentrations) in a complete assay medium. Pictures were captured every 6 h for up to 9 days To monitor the cord formation. The medium was refreshed every 2 or 3 days. Cords formation was visualized by the GFP fluorescence, and cord length was quantified with the instrument’s software. All the experiments were repeated at least three times, and representative experiments are shown.

Sequence of ACVR2A (P27037 20-513): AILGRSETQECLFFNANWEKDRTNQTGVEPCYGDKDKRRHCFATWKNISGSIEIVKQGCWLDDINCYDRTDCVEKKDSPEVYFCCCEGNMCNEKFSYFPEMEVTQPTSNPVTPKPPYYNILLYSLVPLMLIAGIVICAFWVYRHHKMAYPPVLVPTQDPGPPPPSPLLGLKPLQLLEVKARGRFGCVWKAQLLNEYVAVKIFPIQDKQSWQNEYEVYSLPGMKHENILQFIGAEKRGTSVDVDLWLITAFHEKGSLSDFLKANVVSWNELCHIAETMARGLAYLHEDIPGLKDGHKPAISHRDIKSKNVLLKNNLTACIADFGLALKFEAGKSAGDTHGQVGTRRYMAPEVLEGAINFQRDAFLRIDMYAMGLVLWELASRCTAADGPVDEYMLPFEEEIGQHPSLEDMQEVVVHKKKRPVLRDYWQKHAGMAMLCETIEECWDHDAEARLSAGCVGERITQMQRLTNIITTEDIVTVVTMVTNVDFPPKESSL

Structure (SMILES) | Kd [1] [nM] | effect on SIV vessel length [2] | effect on number of SIV tip cells (leading buds) [2] | Kd [3] [nM] | effect on DLAV and ISV formation (images) [4] | effect on total vessel length and number of junctions (DLAV and ISV, quantified) [4] | effect on TGF-β2-induced SMAD2 phosphorylation ([5]; dose range) | effect on VEGF-induced EC cord formation [6] | effect on VEGF-induced cord formation at 0.1 μM ([6]; VEGF 20 ng/mL, 9 days, 0.1 μM) | effect on VEGF-induced cord length, different concentrations ([6]; VEGF 20 ng/mL, 9 days) | effect on TGF-β2-induced SMAD2 phosphorylation ([5]; 0.1 µM compound) | effect on DLAV formation [4] | effect on ISV development [4] | effect on VEGF-induced cord formation at 0.5 μM ([6]; VEGF 20 ng/mL, 9 days, 0.5 μM)
CN1CCC(=O)NCCNc2ccn3ncc(c3n2)-c2cccc(c2)C1 [OD29] | 1240 | significantly inhibited | did not influence | 76 | strong negative impact | significantly inhibited | nearly no inhibitory effect | antagonized | effectively attenuated | antagonized in a dose-dependent manner | – | – | – | –
c1ccc2c(-c3cnn4cc(-c5ccc(N6CCNCC6)cc5)cnc34)ccnc2c1 [LDN-193189, reference compound] | 11 | resulted in a lack of SIV vessels | significantly increased | 16 | did not exhibit apparent defects | showed no effects | – | no inhibitory effect and even slightly enhanced | – | – | effectively attenuated | – | – | –
CNC(=O)c1ccccc1Sc1ccc2c(/C=C/c3ccccn3)n[nH]c2c1 [Axitinib, reference compound] | – | markedly inhibited | – | – | strong defects in both DLAV and ISV formation | strongly inhibited | – | – | – | potently inhibited | – | – | – | –
CN1CCc2cccc(c2)Nc2nccc(n2)N2CCCc3cc(ccc32)C1 [OD16] | 110 | significantly inhibited | did not influence | 380 | – | significantly inhibited | in a dose-dependent manner but far less efficiently than LDN-193189 | antagonized | – | antagonized in a dose-dependent manner | – | strongly delayed | slightly inhibited | apparent inhibitory effects
